Earlier results, collected in patent US20160296513A1 (Teva Pharmaceutical Industries Ltd., priority 2013, published 2016).

Tests used:
[1] = tested on: MS
[2] = in vivo
[3] = tested on: genes related to antigen presentation and corresponding inflammatory pathways; details: mainly via the NFkB pathway
[4] = tested on: multiple sclerosis patients; details: human, in vivo
[5] = tested on: first-line treatment-refractory RRMS; details: CARE-MS II
[6] = tested on: relapsing-remitting multiple sclerosis (RRMS); details: CARE-MS I, vs interferon beta-1a

| oral bioavailability [2] | Molecule | neurodegeneration and non-relapse-dependent disability progression ([1]; in MS) | Confirmed Disease Progression (CDP) ([1]; unexplained by inflammatory markers) | suppression of genes related to antigen presentation and corresponding inflammatory pathways [3] | depletion repletion pattern for T cells, B cells and monocytes [4] | effect on inflammatory axis [4] | accumulation of disability [5] | relapse rates [5] | relapse ([6]; 12 mg/day IV 5 days at Month 0, 3 days at Month 12) | disability endpoints [6] |
| --- | --- | --- | --- | --- | --- | --- | --- | --- | --- | --- |
| high | CCN(C(=O)c1c(O)c2c(Cl)cccc2n(C)c1=O)c1ccccc1 [Laquinimod, 5-chloro-N-ethyl-4-hydroxy-1-methyl-2-oxo-N-phenyl-1,2-dihydroquinoline-3-carboxamide] | showed potential for slowing neurodegeneration and reducing non-relapse-dependent disability progression | sustain Confirmed Disease Progression (CDP) | induced suppression | – | – | – | – | – | – |
| – | Alemtuzumab: recombinant DNA-derived humanized monoclonal IgGlx antibody raised against CD52 | – | – | – | well characterized depletion repletion pattern | large and sustained | sustain accumulation of disability | reduce relapse rates | reduction of relapse | did not show benefit |
